From ChEMBL document CHEMBL1201862, “PubChem BioAssay data set” (2004) come the findings set out here.

Among the test systems are UACC-257; SW-620; HT-29; SK-OV-3; HOP-62; Malme-3M; IGROV-1; MDA-N; SNB-75; OVCAR-8; NCI-H522; NCI/ADR-RES; UO-31; SN12C; HCC 2998; M14; HCT-15; CAKI-1; ACHN; SR.
Common to all, as to test: DTP human tumour cell line panel, 48 h

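Compound exposure: 48 hours, 5 concentrations, 96-well plates. GI50 = concentration required for 50% inhibition of growth.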 Active and inactive are the calls of the source. Cut-off read from the data, not from the text of the source: active = GI50 up to about 1.1 µM and inactive = higher. Some results are limits rather than exact numbers.

As usually defined, the GI50 is the concentration that inhibits growth by half. As for `CC(C)(C)CNCCO`, the GI50 in the test on UACC-257, with SW-620, in the test with HT-29, in the test with SK-OV-3, in the test with HOP-62 and in the test on Malme-3M was > 100 µM (inactive) each time. For the same compound, the GI50 in the test with IGROV-1, in the test on MDA-N, in the test on SNB-75, in the test on OVCAR-8, in the test on NCI-H522 and in the test on NCI/ADR-RES was > 100 µM (inactive) throughout. Moreover, the GI50 in the test on UO-31 was > 100 µM (inactive); with SN12C, > 100 µM (inactive); with HCC 2998 it was > 100 µM (inactive); in the test on M14 it was > 100 µM (inactive); in the test with HCT-15, over 100 µM; in the test with CAKI-1, > 100 µM (inactive). Moreover, the GI50 in the test with ACHN is > 100 µM (inactive).
Turning to `C=CCSc1nn(CC=C)cc2ncnc1-2`, the GI50 in the test with UACC-257, in the test with SW-620, in the test with HT-29, with HOP-62, with SR and with IGROV-1 was > 100 µM (inactive) in each case. For the same compound, the GI50 in the test with MDA-N, with SNB-75, in the test with OVCAR-8, in the test on NCI/ADR-RES, in the test with UO-31 and in the test on SN12C was > 100 µM (inactive) throughout. The GI50 in the test on M14 is > 100 µM (inactive); with HCT-15, over 100 µM; in the test on CAKI-1, > 100 µM (inactive); in the test on ACHN, > 100 µM (inactive).
For `O=C(/C=C\c1ccc([N+](=O)[O-])cc1)c1ccccc(=O)c1O`, the GI50 with UACC-257 is 1.77 µM (inactive); in the test on SW-620, 1.3 µM (inactive); with HT-29, 1.04 µM (active); in the test with SK-OV-3 it was 4.3 µM (inactive); in the test with HOP-62, 1.88 µM (inactive); in the test with Malme-3M, 0.873 µM (active). Also, the GI50 in the test with IGROV-1 is 1.14 µM (inactive); in the test with MDA-N it was 2.37 µM (inactive); in the test on SNB-75, 1.29 µM (inactive); with OVCAR-8 it was 0.9 µM (active); in the test on NCI-H522 it was 1.39 µM (inactive); with NCI/ADR-RES, 0.429 µM (active). Besides, the GI50 in the test on UO-31 was 1.02 µM (active); with SN12C, 4.81 µM (inactive); in the test with HCC 2998 it was 1.29 µM (inactive); in the test with M14, 1.29 µM (inactive); in the test on HCT-15, 0.169 µM; with CAKI-1, 1.32 µM (inactive). Moreover, the GI50 with ACHN is 1.01 µM (active).
Regarding `C[C@@H]1OC(=O)C[C@H]2CC(=O)N(CCC3CN(C(=O)c4ccccc4)c4ccccc43)C[C@@H]21` (some centres undefined), the GI50 in the test with UACC-257, in the test on SW-620, in the test with HT-29, with SK-OV-3, in the test on HOP-62 and with Malme-3M was > 100 µM (inactive) in each case. The GI50 in the test on IGROV-1, with MDA-N, in the test with SNB-75, in the test with OVCAR-8, with NCI-H522 and in the test with NCI/ADR-RES was > 100 µM (inactive) in each case. For the same compound, the GI50 in the test on UO-31 is > 100 µM (inactive); in the test on HCC 2998, > 100 µM (inactive); in the test on M14 it was > 100 µM (inactive); in the test with HCT-15 it was over 100 µM; in the test with CAKI-1, > 100 µM (inactive); in the test on ACHN it was > 100 µM (inactive).
As to `CCCCCC1=C2C(c3ccc(OC)cc3)=C(N)C(c3ccc(OC)cc3)=C3NC(=O)C(C=C1)C32` (centres undefined), the GI50 in the test on UACC-257 is > 100 µM (inactive); with SW-620 it was 49.2 µM (inactive); in the test on HT-29, > 100 µM (inactive); in the test with SK-OV-3, 41.7 µM (inactive); in the test on HOP-62 it was 21.8 µM (inactive); in the test on Malme-3M, 19.5 µM (inactive). The GI50 in the test with IGROV-1 is 28.1 µM (inactive); with MDA-N, 61.4 µM (inactive); in the test with SNB-75 it was 32.8 µM (inactive); in the test on OVCAR-8, 30.3 µM (inactive); in the test with NCI-H522 it was 22.4 µM (inactive); in the test on NCI/ADR-RES, > 100 µM (inactive). For the same compound, the GI50 in the test on UO-31 is 54.3 µM (inactive); in the test on SN12C, 74.8 µM (inactive); in the test with HCC 2998 it was > 100 µM (inactive); in the test with M14, 59.7 µM (inactive); in the test on HCT-15, over 100 µM; with CAKI-1, 36 µM (inactive). Moreover, the GI50 in the test with ACHN was > 100 µM (inactive).
Consider `COc1cc2nc(Nc3cccc(Br)c3)nc(Nc3cccc(Br)c3)c2cc1OC`, for which the GI50 with UACC-257 is > 10 µM (inactive); with SW-620, 24.2 µM (inactive); in the test with HT-29 it was 18.7 µM (inactive); in the test with SK-OV-3, 19.2 µM (inactive); in the test on HOP-62 it was 18 µM (inactive); in the test with Malme-3M it was 19.1 µM (inactive). In addition, the GI50 with IGROV-1 is 15.1 µM (inactive); in the test on MDA-N, 18.7 µM (inactive); with SNB-75 it was 17.3 µM (inactive); with OVCAR-8, 16.6 µM (inactive); with NCI-H522 it was 16.7 µM (inactive); with NCI/ADR-RES, 19.6 µM (inactive). Besides, the GI50 in the test with UO-31 is 16 µM (inactive); in the test on SN12C, 16.4 µM (inactive); in the test on HCC 2998 it was 23.6 µM (inactive); in the test on M14, 18.2 µM (inactive); in the test on HCT-15, 17.7 µM; in the test on CAKI-1, 15.7 µM (inactive). Moreover, in the test with ACHN, the GI50 was 16 µM (inactive).
In the case of `CN(CC(=O)O)c1ncc2c(n1)-c1ccccc1SC2`, the GI50 was > 100 µM (inactive) in the test with UACC-257; > 100 µM (inactive) in the test with SW-620; > 100 µM (inactive) with HT-29; 92.3 µM (inactive) in the test on SR; 50.1 µM (inactive) in the test on Malme-3M; > 100 µM (inactive) in the test on IGROV-1. In addition, the GI50 in the test on MDA-N, with SNB-75, in the test on OVCAR-8, in the test on NCI-H522, in the test with NCI/ADR-RES and in the test on UO-31 was > 100 µM (inactive) in each case. Besides, the GI50 was > 100 µM (inactive) in the test with SN12C; > 100 µM (inactive) in the test with M14; over 100 µM in the test on HCT-15; > 100 µM (inactive) in the test on CAKI-1; > 100 µM (inactive) in the test with ACHN.
Regarding `COc1ccc(-c2cc(-c3cc4cc(Br)ccc4nc3Cl)c(C#N)c(N)n2)cc1`, the GI50 with SW-620 was > 12.5 µM (inactive); in the test with HT-29, > 12.5 µM (inactive); in the test with SK-OV-3, > 12.5 µM (inactive); in the test on HOP-62, > 12.5 µM (inactive); in the test on SR, 4.28 µM (inactive); with Malme-3M, > 12.5 µM (inactive). For the same compound, the GI50 in the test with IGROV-1, with MDA-N, with SNB-75, in the test on OVCAR-8, in the test with NCI-H522 and with NCI/ADR-RES was > 12.5 µM (inactive) throughout. The GI50 was > 12.5 µM (inactive) in the test on UO-31; > 12.5 µM (inactive) in the test with SN12C; > 12.5 µM (inactive) in the test with M14; over 12.5 µM with HCT-15; > 12.5 µM (inactive) in the test with CAKI-1.
